Results published in the kinase profiling compilation of Christmann-Franck et al. (2016).

Key:
Test in all cases: radiometric filter-binding kinase assay, Kinaseprofiler
ABL1 (human) = ABL1 (human) (UniProt P00519); conditions: ATP 10 µM
AURKC (human) = AURKC (human) (UniProt Q9UQB9); conditions: ATP 15 µM
BTK (human) = BTK (human) (UniProt Q06187); conditions: ATP 200 µM
CDK1 CCNB1 (human) = CDK1 CCNB1 (human) (UniProt P06493+P14635); conditions: ATP 45 µM
CDK3 CCNE1 (human) = CDK3 CCNE1 (human) (UniProt Q00526+P24864); conditions: ATP 200 µM
CDK6 CCND3 (human) = CDK6 CCND3 (human) (UniProt P30281+Q00534); conditions: ATP 200 µM
CDK9 CCNT1 (human) = CDK9 CCNT1 (human) (UniProt P50750+O60563); conditions: ATP 45 µM
CHEK2 (human) = CHEK2 (human) (UniProt O96017); conditions: ATP 70 µM
CSK (human) = CSK (human) (UniProt P41240); conditions: ATP 15 µM
EPHB4 (human) = EPHB4 (human) (UniProt P54760); conditions: ATP 10 µM
Sequence of EPHB4 (human) (P54760 whole entry, looked up): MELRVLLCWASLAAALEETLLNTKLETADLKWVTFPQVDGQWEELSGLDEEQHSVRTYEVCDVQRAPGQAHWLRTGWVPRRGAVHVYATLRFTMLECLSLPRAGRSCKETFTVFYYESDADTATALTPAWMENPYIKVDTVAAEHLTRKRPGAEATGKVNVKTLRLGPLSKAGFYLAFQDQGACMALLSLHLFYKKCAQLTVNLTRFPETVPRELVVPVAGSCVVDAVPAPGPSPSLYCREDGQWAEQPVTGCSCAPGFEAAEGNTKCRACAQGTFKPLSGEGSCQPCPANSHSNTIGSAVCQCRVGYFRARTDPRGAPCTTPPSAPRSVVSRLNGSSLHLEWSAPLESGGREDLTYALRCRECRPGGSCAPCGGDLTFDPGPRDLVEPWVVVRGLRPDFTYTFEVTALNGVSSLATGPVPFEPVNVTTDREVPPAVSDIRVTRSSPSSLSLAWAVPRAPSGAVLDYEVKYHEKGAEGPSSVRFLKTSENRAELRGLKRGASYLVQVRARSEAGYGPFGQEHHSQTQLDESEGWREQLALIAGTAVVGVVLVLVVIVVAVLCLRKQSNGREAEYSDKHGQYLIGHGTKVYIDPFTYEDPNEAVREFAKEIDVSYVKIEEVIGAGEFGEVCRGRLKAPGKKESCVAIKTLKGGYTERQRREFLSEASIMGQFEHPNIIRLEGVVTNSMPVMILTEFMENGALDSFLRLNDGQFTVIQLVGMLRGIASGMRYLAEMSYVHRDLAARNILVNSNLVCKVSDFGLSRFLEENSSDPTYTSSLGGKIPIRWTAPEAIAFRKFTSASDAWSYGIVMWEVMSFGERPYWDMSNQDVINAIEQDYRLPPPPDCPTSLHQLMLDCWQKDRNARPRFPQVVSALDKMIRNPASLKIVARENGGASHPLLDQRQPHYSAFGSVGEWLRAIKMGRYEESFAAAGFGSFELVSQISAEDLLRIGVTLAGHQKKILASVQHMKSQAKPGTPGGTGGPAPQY

FER (human) = FER (human) (UniProt P16591); conditions: ATP 70 µM
FGFR1 (human) = FGFR1 (human) (UniProt P11362); conditions: ATP 200 µM
FYN (human) = FYN (human) (UniProt P06241); conditions: ATP 70 µM
Sequence of FYN (human) (P06241 whole entry, looked up): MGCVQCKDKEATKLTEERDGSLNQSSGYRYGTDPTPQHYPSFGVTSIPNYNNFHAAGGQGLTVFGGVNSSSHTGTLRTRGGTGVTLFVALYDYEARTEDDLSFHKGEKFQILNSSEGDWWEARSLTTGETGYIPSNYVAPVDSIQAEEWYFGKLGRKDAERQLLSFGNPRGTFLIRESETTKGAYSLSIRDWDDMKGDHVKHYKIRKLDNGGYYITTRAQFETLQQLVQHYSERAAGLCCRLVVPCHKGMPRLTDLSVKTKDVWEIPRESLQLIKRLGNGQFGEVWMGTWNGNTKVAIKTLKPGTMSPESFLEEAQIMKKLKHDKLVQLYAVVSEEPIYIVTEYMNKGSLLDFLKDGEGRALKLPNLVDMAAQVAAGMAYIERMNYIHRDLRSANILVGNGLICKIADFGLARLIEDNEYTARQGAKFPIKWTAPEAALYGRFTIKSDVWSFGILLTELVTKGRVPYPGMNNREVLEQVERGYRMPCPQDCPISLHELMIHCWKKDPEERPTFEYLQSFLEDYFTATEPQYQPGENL

GRK7 (human) = GRK7 (human) (UniProt Q8WTQ7); conditions: ATP 15 µM
Sequence of GRK7 (human) (Q8WTQ7 whole entry, looked up): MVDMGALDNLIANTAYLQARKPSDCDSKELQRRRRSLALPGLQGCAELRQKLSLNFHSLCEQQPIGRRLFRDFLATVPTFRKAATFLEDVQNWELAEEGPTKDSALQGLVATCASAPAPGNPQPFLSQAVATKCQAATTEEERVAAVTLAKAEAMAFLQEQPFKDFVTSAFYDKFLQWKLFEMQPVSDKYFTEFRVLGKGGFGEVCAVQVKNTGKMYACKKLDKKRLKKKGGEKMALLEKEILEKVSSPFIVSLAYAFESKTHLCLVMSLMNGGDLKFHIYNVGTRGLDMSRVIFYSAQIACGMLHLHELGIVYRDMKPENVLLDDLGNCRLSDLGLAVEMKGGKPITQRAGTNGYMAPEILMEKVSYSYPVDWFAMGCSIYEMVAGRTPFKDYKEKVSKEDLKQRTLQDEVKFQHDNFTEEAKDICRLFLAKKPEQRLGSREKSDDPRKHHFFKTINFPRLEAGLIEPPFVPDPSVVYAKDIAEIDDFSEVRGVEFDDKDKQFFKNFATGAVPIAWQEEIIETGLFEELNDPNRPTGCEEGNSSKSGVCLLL

GSG2 (human) = GSG2 (human) (UniProt Q8TF76); conditions: ATP 70 µM
INSR (human) = INSR (human) (UniProt P06213)
Sequence of INSR (human) (P06213 whole entry, looked up): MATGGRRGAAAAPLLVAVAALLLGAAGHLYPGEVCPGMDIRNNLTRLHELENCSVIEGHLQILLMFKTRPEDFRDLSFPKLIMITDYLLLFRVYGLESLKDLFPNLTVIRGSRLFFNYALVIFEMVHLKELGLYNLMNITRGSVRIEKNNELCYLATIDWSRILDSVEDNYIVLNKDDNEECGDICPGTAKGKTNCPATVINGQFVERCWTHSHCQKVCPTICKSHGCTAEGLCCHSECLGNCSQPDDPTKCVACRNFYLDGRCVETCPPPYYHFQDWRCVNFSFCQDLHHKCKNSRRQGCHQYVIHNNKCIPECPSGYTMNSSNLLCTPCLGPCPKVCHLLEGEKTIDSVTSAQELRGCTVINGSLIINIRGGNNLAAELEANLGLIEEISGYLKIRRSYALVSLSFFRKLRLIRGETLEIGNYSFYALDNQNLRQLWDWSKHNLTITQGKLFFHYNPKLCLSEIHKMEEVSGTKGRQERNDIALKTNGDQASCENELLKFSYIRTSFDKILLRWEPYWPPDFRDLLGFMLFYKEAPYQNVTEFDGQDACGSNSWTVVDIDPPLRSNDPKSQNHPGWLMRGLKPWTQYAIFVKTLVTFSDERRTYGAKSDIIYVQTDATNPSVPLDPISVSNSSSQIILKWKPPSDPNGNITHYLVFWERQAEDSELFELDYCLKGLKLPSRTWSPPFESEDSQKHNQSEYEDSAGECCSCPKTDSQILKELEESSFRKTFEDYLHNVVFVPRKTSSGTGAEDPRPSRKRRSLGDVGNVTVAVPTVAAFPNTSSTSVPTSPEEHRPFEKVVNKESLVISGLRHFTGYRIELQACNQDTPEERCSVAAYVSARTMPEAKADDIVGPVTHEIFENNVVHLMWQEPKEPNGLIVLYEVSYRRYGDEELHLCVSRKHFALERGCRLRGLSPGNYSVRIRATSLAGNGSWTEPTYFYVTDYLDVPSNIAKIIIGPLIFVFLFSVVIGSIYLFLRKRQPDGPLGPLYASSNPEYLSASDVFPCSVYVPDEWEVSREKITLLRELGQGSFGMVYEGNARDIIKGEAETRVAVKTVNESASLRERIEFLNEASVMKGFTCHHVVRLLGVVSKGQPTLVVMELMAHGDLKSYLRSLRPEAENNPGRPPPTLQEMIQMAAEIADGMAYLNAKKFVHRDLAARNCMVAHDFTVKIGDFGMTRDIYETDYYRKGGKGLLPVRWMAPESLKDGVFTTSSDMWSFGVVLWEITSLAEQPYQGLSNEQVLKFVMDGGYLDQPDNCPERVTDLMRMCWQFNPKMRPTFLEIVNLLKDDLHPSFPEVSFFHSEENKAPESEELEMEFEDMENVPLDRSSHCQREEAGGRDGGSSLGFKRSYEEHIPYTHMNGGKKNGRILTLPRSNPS

LIMK1 (human) = LIMK1 (human) (UniProt P53667); conditions: ATP 15 µM
Sequence of LIMK1 (human) (P53667 whole entry, looked up): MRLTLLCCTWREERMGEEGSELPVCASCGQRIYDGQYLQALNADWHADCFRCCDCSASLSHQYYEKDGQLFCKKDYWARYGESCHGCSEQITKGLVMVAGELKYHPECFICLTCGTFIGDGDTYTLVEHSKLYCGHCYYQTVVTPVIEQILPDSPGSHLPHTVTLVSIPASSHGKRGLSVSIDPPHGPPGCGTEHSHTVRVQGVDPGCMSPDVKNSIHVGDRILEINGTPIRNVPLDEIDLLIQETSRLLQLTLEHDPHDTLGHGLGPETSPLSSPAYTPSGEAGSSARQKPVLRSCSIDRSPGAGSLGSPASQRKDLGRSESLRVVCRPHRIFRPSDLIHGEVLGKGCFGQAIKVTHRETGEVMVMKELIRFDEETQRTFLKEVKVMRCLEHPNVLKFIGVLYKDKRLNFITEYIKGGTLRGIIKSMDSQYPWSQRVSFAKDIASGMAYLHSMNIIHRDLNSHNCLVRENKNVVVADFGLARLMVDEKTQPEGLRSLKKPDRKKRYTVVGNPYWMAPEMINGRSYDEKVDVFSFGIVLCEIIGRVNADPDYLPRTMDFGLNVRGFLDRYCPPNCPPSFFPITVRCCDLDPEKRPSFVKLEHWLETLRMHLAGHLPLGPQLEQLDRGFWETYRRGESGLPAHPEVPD

MAP3K9 (human) = MAP3K9 (human) (UniProt P80192); conditions: ATP 45 µM
MAPK1 (human) = MAPK1 (human) (UniProt P28482); conditions: ATP 155 µM
MAPK13 (human) = MAPK13 (human) (UniProt O15264); conditions: ATP 15 µM
MELK (human) = MELK (human) (UniProt Q14680); conditions: ATP 45 µM
NEK7 (human) = NEK7 (human) (UniProt Q8TDX7); conditions: ATP 45 µM
Sequence of NEK7 (human) (Q8TDX7 whole entry, looked up): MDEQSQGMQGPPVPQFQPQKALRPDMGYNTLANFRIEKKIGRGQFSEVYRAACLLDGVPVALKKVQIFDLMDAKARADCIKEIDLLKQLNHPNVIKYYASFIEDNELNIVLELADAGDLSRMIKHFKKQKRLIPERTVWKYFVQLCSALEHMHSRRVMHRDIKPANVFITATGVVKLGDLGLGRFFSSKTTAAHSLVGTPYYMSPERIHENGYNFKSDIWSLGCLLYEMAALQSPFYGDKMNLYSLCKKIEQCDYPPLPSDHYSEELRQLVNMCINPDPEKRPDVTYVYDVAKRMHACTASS

PIM1 (human) = PIM1 (human) (UniProt P11309); conditions: ATP 90 µM
PIM3 (human) = PIM3 (human) (UniProt Q86V86); conditions: ATP 155 µM
PLK1 (human) = PLK1 (human) (UniProt P53350); conditions: ATP 70 µM
PRKCA (human) = PRKCA (human) (UniProt P17252); conditions: ATP 45 µM
PRKCE (human) = PRKCE (human) (UniProt Q02156); conditions: ATP 45 µM
PRKCI (human) = PRKCI (human) (UniProt P41743); conditions: ATP 155 µM
PRKD2 (human) = PRKD2 (human) (UniProt Q9BZL6); conditions: ATP 155 µM
PTK2B (human) = PTK2B (human) (UniProt Q14289); conditions: ATP 90 µM
RPS6KA1 KD1 KD2 (human) = RPS6KA1 KD1 KD2 (human) (UniProt Q15418); conditions: ATP 45 µM
ULK3 (human) = ULK3 (human) (UniProt Q6PHR2); conditions: ATP 10 µM

Sequence of AURKC (human) (Q9UQB9 whole entry, looked up): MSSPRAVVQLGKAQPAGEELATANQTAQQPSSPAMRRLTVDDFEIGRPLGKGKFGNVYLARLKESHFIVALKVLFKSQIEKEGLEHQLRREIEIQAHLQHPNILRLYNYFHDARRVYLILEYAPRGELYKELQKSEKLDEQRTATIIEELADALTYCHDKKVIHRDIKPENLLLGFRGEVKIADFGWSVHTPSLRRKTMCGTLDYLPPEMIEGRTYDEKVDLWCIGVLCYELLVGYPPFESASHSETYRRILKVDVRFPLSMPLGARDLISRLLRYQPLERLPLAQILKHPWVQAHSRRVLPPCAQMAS

residual activity (ABL1 (human); compound 1.0 µM): 83%
residual activity (ABL1 (human); compound 10.0 µM): 56%
residual activity (AURKC (human); compound 1.0 µM): 9%
residual activity (AURKC (human); compound 10.0 µM): 4%
residual activity (BTK (human); compound 1.0 µM): 88%
residual activity (BTK (human); compound 10.0 µM): 57%
residual activity (CDK1 CCNB1 (human); compound 1.0 µM): 52%
residual activity (CDK1 CCNB1 (human); compound 10.0 µM): 35%
residual activity (CDK3 CCNE1 (human); compound 1.0 µM): 26%
residual activity (CDK3 CCNE1 (human); compound 10.0 µM): 14%
residual activity (CDK6 CCND3 (human); compound 1.0 µM): 76%
residual activity (CDK6 CCND3 (human); compound 10.0 µM): 31%
residual activity (CDK9 CCNT1 (human); compound 1.0 µM): 96%
residual activity (CDK9 CCNT1 (human); compound 10.0 µM): 55%
residual activity (CHEK2 (human); compound 1.0 µM): 29%
residual activity (CHEK2 (human); compound 10.0 µM): 2%
residual activity (CSK (human); compound 1.0 µM): 105%
residual activity (CSK (human); compound 10.0 µM): 93%
residual activity (EPHB4 (human); compound 1.0 µM): 89%
residual activity (EPHB4 (human); compound 10.0 µM): 55%
residual activity (FER (human); compound 1.0 µM): 75%
residual activity (FER (human); compound 10.0 µM): 51%
residual activity (FGFR1 (human); compound 1.0 µM): 39%
residual activity (FGFR1 (human); compound 10.0 µM): 4%
residual activity (FYN (human); compound 1.0 µM): 60%
residual activity (FYN (human); compound 10.0 µM): 47%
residual activity (GRK7 (human); compound 1.0 µM): 71%
residual activity (GRK7 (human); compound 10.0 µM): 27%
residual activity (GSG2 (human); compound 1.0 µM): 10%
residual activity (GSG2 (human); compound 10.0 µM): -1%
residual activity (INSR (human); compound 1.0 µM, ATP 45 µM): 70%
residual activity (INSR (human); compound 1.0 µM, ATP 200 µM): 81%
residual activity (INSR (human); compound 10.0 µM, ATP 45 µM): 26%
residual activity (INSR (human); compound 10.0 µM, ATP 200 µM): 47%
residual activity (LIMK1 (human); compound 1.0 µM): 64%
residual activity (LIMK1 (human); compound 10.0 µM): 30%
residual activity (MAP3K9 (human); compound 1.0 µM): 13%
residual activity (MAP3K9 (human); compound 10.0 µM): 4%
residual activity (MAPK1 (human); compound 1.0 µM): 88%
residual activity (MAPK1 (human); compound 10.0 µM): 55%
residual activity (MAPK13 (human); compound 1.0 µM): 96%
residual activity (MAPK13 (human); compound 10.0 µM): 73%
residual activity (MELK (human); compound 1.0 µM): 13%
residual activity (MELK (human); compound 10.0 µM): 0%
residual activity (NEK7 (human); compound 1.0 µM): 99%
residual activity (NEK7 (human); compound 10.0 µM): 89%
residual activity (PIM1 (human); compound 1.0 µM): 68%
residual activity (PIM1 (human); compound 10.0 µM): 18%
residual activity (PIM3 (human); compound 1.0 µM): 75%
residual activity (PIM3 (human); compound 10.0 µM): 59%
residual activity (PLK1 (human); compound 1.0 µM): 69%
residual activity (PLK1 (human); compound 10.0 µM): 64%
residual activity (PRKCA (human); compound 1.0 µM): 98%
residual activity (PRKCA (human); compound 10.0 µM): 73%
residual activity (PRKCE (human); compound 1.0 µM): 101%
residual activity (PRKCE (human); compound 10.0 µM): 84%
residual activity (PRKCI (human); compound 1.0 µM): 117%
residual activity (PRKCI (human); compound 10.0 µM): 107%
residual activity (PRKD2 (human); compound 1.0 µM): 92%
residual activity (PRKD2 (human); compound 10.0 µM): 36%
residual activity (PTK2B (human); compound 1.0 µM): 68%
residual activity (PTK2B (human); compound 10.0 µM): 23%
residual activity (RPS6KA1 KD1 KD2 (human); compound 1.0 µM): 86%
residual activity (RPS6KA1 KD1 KD2 (human); compound 10.0 µM): 64%
residual activity (ULK3 (human); compound 1.0 µM): 73%
residual activity (ULK3 (human); compound 10.0 µM): 43%
SMILES: O=C1c2ccccc2-c2n[nH]c3cccc1c23
